Source: patent US20260347403A1, “FUNGICIDAL COMPOUND” (priority 2022, published 2026)
Where two headings read alike, the source gives them in different places. Numbered stars: 1 amine (or outer) side, 2 acyl side, 3 side chain; on linkers, the order of the positions; unused ones are H or OH. Bridge positions count the residues as written; N and C are the ends. Square brackets hold non-standard residues; d marks the D form. Peptide text beside a SMILES is read from it. * marks the point of attachment. Tridecanoyl(12-Me) = CC(C)CCCCCCCCCCC(=O)*; X1 = NC(=O)CC(O)C(N[*:1])C(=O)[*:2]; NMeF = CN[CH](Cc1ccccc1)C(=O)O; NMeN = CN[CH](CC(N)=O)C(=O)O; X2 = CCC(C)CCCCCCCCCCC(=O)*

How the values were obtained:
Sclerotinia sclerotiorum = test: Liquid culture 96-well mixture assay with malonomicin, Sclerotinia sclerotiorum, 72 hrs; type: cell-based; details: concentrations in Table 8
Method: (§1) A stock solution for compound of Formula I(a) was produced in DMSO (max. 10 mg/ml). Malonomicin was produced according to Law et al, 2018 (Nature Catalys is |VOL 1|DECEMBER 2018|977-984). A stock solution of malonomicin was produced in water plus 0.025% Tween® 20.
(§2) Assays to test efficacy of mixtures of the lipopeptide compound of Formula I(a) in combination with malonomicin on the control of fungal pathogens in a liquid culture assay were designed for a 96well plate as outlined in table 1:
(§3) The 96 well plate design allows to compare disease control of the mixture with disease control of the respective single compound at the same rate.
(§4) A master plate with 10× concentrated solution of the compound stock solutions diluted in water plus 0.025% Tween® 20 was prepared. The concentration of DMSO (from the stock of compound of Formula (a)) and Tween® 20 was kept constant in all cells of the master plate. 10 μl was transferred from the master plate to a 96well test plate. The nutrient broth containing the fungal spores/mycelia fragments was then added to the test plate to give an end concentration of 1× for the tested compounds (as outlined in Table 8). The test plates were incubated in the dark at 24 °C and 96% rh. The inhibition of fungal growth was determined photometrically after ca 3 days, and percent fungal growth reduction relative to the untreated check was calculated.
Sclerotinia sclerotiorum (EPPO Code: SCLESC)
Mycelial fragments of the fungus prepared from a fresh liquid culture were directly mixed into nutrient broth (PDB: potato dextrose broth).

Fusarium culmorum = test: Liquid culture 96-well mixture assay with malonomicin, Fusarium culmorum, 72 hrs; type: cell-based; details: read-out: control of fungal growth (% reduction)
Method: as §1, §2, §3, §4
Fusarium culmorum (EPPO Code: FUSACU)
(§5) Conidia of the fungus from cryogenic storage were directly mixed into nutrient broth (PDB: potato dextrose broth).

Microdochium nivale = test: Liquid culture 96-well mixture assay with malonomicin, Microdochium nivale, 72 hrs; type: cell-based; details: read-out: control of fungal growth (% reduction)
Method: as §1, §2, §3, §4
Microdochium nivale (EPPO Code: MONGNI)
as §5

Zymoseptoria tritici = test: Leaf painting assay in wheat seedling, Zymoseptoria tritici; type: in vivo, Zymoseptoria tritici on wheat (variety Riband); details: for % reduction of fungal growth: middle segment; for control on the treated area (middle segment): up to, Table 6, Zymoseptoria tritici
Method: Wheat seedlings of the variety Riband (for Zymoseptoria tritici trials) or variety Arina (for Puccinia recondite trials) were grown in a glasshouse until 14 d after seeding. At this time, such seedlings usually have a first leaf fully emerged (designated L1), a second leaf fully emerged (L2) and a third leaf (L3) that was partially emerged and in the process of development. Using a permanent pen, two dots were applied on the second leaf such as to generate three segments of roughly equal size: Segment A (at the base), segment B (middle part) and segment C (upper part of the leaf). A stock solution of the test compound was produced in DMSO at a concentration of 10′000 ppm. […] The diluted compound was applied to the middle segment of L2 using a conventional cotton stick; the cotton stick was soaked in the diluted compound and rubbed several times on the adaxial leaf surface between the two marks. 1 day later, the complete plant was inoculated with a fungal spore suspension using a paint brush and application of the spore suspension until before run-off.
For infection with Zymoseptoria tritici: The test plants were inoculated by spraying a spore suspension on them 1 day after application (1.5Mio spores per ml in water supplemented with 0.01% Tween®20). After an incubation period of 4 days at 22 °C/21 °C. (day/night) and 95% rh, the inoculated test plants were kept at 22 °C/21 °C (day/night) and 70% rh in a greenhouse. Efficacy was assessed by visual evaluation directly when an appropriate level of disease appears on untreated check plants (usually >80% disease cover at 16-19 days after inoculation).
The three segments of the leaf were evaluated individually.

[1] = tested on: ROS production induced by flg22; test: Reactive Oxygen Species (ROS) burst assay with wheat leaf discs; details: Triticum aestivum, foliar
Phaeosphaeria nodorum = test: Leaf disc test on wheat, Phaeosphaeria nodorum (Glume Blotch), 5-7 days after application; type: in vivo, Phaeosphaeria nodorum (Septoria nodorum) on wheat; details: Table 5
Method: (§6) Leaf disks or leaf segments of various plant species were cut from plants grown in the greenhouse. The cut leaf disks, or segments were placed in multiwell plates (24-well format) onto water agar. The leaf disks were sprayed with a test solution before inoculation with the fungal spores. Compounds to be tested were prepared as DMSO solutions (max. 10 mg/ml) which were diluted to the appropriate concentration with water plus 0.025% Tween® 20 just before spraying. The inoculated leaf disks or segments were incubated under defined conditions (temperature, relative humidity, light, etc.) according to the respective test system. A single evaluation of disease level was carried out by visual evaluation 3-9 days days after inoculation, depending on the pathosystem as indicated below. Percent disease control relative to the untreated check leaf disks or segments was then calculated.
Phaeosphaeria Nodorum (Septoria nodorum)/Wheat/Leaf Disc (Glume Blotch)
Wheat leaf segments cv. Kanzler were placed on agar in a multiwell plate (24-well format) and sprayed with the formulated test compound diluted in water. The leaf disks were inoculated with a spore suspension of the fungus 2 days after application. The inoculated test leaf disks were incubated at 20 °C and 75% rh under a light regime of 12 h light/12 h darkness in a climate cabinet and the activity of a compound was assessed as percent disease control compared to untreated when an appropriate level of disease damage appears in untreated check leaf disks (5-7 days after application)

several fungal species = test: Leaf disc or leaf segment tests, summary over the fungi tested; type: in vivo; details: up to; Tables 4 and 5
Method: as §6

[2] = read-out: Fold change (peak ROS)
[3] = read-out: increase of ROS production induced by flg22 (factor)

## NC[C@@H]1NC(=O)C(C(=O)CC(NC(=O)[C@@H](N)CO)(C(=O)O)C(=O)O)=C1O [malonomicin, {[(2S)-2-amino-3-hydroxypropanoyl]amino}{2-[(5S)-5-(aminomethyl)-4-hydroxy-2-oxo-2,5-dihydro-1H-pyrrol-3-yl]-2-oxoethyl}malonic acid]
Sclerotinia sclerotiorum; plate column (2), highest malonomicin concentration, lines A-G with compound of Formula I(a) dilution series, line H malonomicin alone
  control of fungal growth (% reduction of growth in the test well as compared to untreated check): 90%
Sclerotinia sclerotiorum; plate column (3) of malonomicin dilution series, lines A-G with compound of Formula I(a), line H malonomicin alone
  control of fungal growth (% reduction of growth in the test well as compared to untreated check): 90%
Sclerotinia sclerotiorum; plate column (4) of malonomicin dilution series, lines A-G with compound of Formula I(a), line H malonomicin alone
  control of fungal growth (% reduction of growth in the test well as compared to untreated check): 90%
Sclerotinia sclerotiorum; plate column (5) of malonomicin dilution series, lines A-G with compound of Formula I(a), line H malonomicin alone
  control of fungal growth (% reduction of growth in the test well as compared to untreated check): 70%
Sclerotinia sclerotiorum; plate column (6) of malonomicin dilution series, lines A-G with compound of Formula I(a), line H malonomicin alone
  control of fungal growth (% reduction of growth in the test well as compared to untreated check): 50%
Sclerotinia sclerotiorum; plate column (7) of malonomicin dilution series, lines A-G with compound of Formula I(a), line H malonomicin alone
  control of fungal growth (% reduction of growth in the test well as compared to untreated check): 20%
Sclerotinia sclerotiorum; plate column (8) of malonomicin dilution series, lines A-G with compound of Formula I(a), line H malonomicin alone
  control of fungal growth (% reduction of growth in the test well as compared to untreated check): 0%
Sclerotinia sclerotiorum; plate column (9) of malonomicin dilution series, lines A-G with compound of Formula I(a), line H malonomicin alone
  control of fungal growth (% reduction of growth in the test well as compared to untreated check): 0%
Sclerotinia sclerotiorum; plate column (10) of malonomicin dilution series, lines A-G with compound of Formula I(a), line H malonomicin alone
  control of fungal growth (% reduction of growth in the test well as compared to untreated check): 0%
Sclerotinia sclerotiorum; plate column (11), lowest malonomicin concentration, lines A-G with compound of Formula I(a), line H malonomicin alone
  control of fungal growth (% reduction of growth in the test well as compared to untreated check): 0%
Fusarium culmorum; malonomicin 1.00 ppm
  inhibition of growth at 1 ppm: 0%
Fusarium culmorum; malonomicin 3.00 ppm
  inhibition of growth at 3 ppm: 0%
Fusarium culmorum; malonomicin 7.81 ppm
  inhibition of growth at 7.81 ppm: 0%
Fusarium culmorum; malonomicin 15.63 ppm
  inhibition of growth at 15.63 ppm: 0%
Fusarium culmorum; malonomicin 31.25 ppm
  inhibition of growth at 31.25 ppm: 0%
Fusarium culmorum; malonomicin 62.5 ppm
  inhibition of growth at 62.5 ppm: 0%
Fusarium culmorum; malonomicin 125 ppm
  inhibition of growth at 125 ppm: 20%
Fusarium culmorum; malonomicin 250 ppm
  inhibition of growth at 250 ppm: 20%
Fusarium culmorum; malonomicin 500 ppm
  inhibition of growth at 500 ppm: 20%
Fusarium culmorum; malonomicin 1000 ppm
  inhibition of growth at 1000 ppm: 20%
Microdochium nivale; malonomicin 1.00 ppm
  inhibition of growth at 1 ppm: 20%
Microdochium nivale; malonomicin 3.00 ppm
  inhibition of growth at 3 ppm: 20%
Microdochium nivale; malonomicin 7.81 ppm
  inhibition of growth at 7.81 ppm: 20%
Microdochium nivale; malonomicin 15.63 ppm
  inhibition of growth at 15.63 ppm: 20%
Microdochium nivale; malonomicin 31.25 ppm
  inhibition of growth at 31.25 ppm: 20%
Microdochium nivale; malonomicin 62.5 ppm
  inhibition of growth at 62.5 ppm: 50%
Microdochium nivale; malonomicin 125 ppm
  inhibition of growth at 125 ppm: 90%
Microdochium nivale; malonomicin 250 ppm
  inhibition of growth at 250 ppm: 100%
Microdochium nivale; malonomicin 500 ppm
  inhibition of growth at 500 ppm: 100%
Microdochium nivale; malonomicin 1000 ppm
  inhibition of growth at 1000 ppm: 100%

## CCC(C)CCCCCCCCCCC(=O)NC1C(=O)NC(CC(=O)O)C(=O)NC(C(O)CC(N)=O)C(=O)NC(CO)C(=O)N(C)C(CC(N)=O)C(=O)N(C)C(Cc2ccccc2)C(=O)NC(CCC(N)=O)C(=O)NC(CCC(=O)O)C(=O)OC1C (stereo not shown) [Formula I(b)] (X2-TD[X1]S[NMeN][NMeF]QE; ester 1-C; configuration not given here)
Zymoseptoria tritici; 20 ppm
  % reduction of fungal growth: 0%
Zymoseptoria tritici; 200 ppm
  % reduction of fungal growth: 31%
Zymoseptoria tritici
  control on the treated area (middle segment): up to 70%
[1]; [2]
  fold induction at 1 ppm: 1.2
  fold induction at 25 ppm: 1.3
  fold induction at 100 ppm: 3
[1]; [3]
  fold induction at 100 ppm: ≥ 2.7
Phaeosphaeria nodorum; 0.82 ppm
  % reduction of fungal growth: 0%
Phaeosphaeria nodorum; 2.5 ppm
  % reduction of fungal growth: 0%
Phaeosphaeria nodorum; 7.4 ppm
  % reduction of fungal growth: 0%
Phaeosphaeria nodorum; 22 ppm
  % reduction of fungal growth: 0%
Phaeosphaeria nodorum; 67 ppm
  % reduction of fungal growth: 0%
Phaeosphaeria nodorum; 200 ppm
  % reduction of fungal growth: 0%
Several fungal species
  reduction of fungal growth: up to 95%

## CC(C)CCCCCCCCCCC(=O)NC1C(=O)NC(CC(=O)O)C(=O)NC(C(O)CC(N)=O)C(=O)NC(CO)C(=O)N(C)C(CC(N)=O)C(=O)N(C)C(Cc2ccccc2)C(=O)NC(CCC(N)=O)C(=O)NC(CCC(=O)O)C(=O)OC1C (stereo not shown) [Formula I(a)] ({Tridecanoyl(12-Me)}-TD[X1]S[NMeN][NMeF]QE; ester 1-C; configuration not given here)
Zymoseptoria tritici; 20 ppm
  % reduction of fungal growth: 0%
Zymoseptoria tritici; 200 ppm
  % reduction of fungal growth: 46%
Zymoseptoria tritici
  control on the treated area (middle segment): up to 70%
[1]; [2]
  fold induction at 1 ppm: 0.8
  fold induction at 25 ppm: 0.8
  fold induction at 100 ppm: 2.7
[1]; [3]
  fold induction at 100 ppm: ≥ 2.7
Sclerotinia sclerotiorum; plate column (1): compound of Formula I(a) alone, dilution series lines A (highest) to G
  control of fungal growth (% reduction of growth in the test well as compared to untreated check): 0%
Fusarium culmorum; I(a) 1.56 ppm
  inhibition of growth at 1.56 µg/mL: 0%
Fusarium culmorum; I(a) 3.125 ppm
  inhibition of growth at 3.125 µg/mL: 0%
Fusarium culmorum; I(a) 6.25 ppm
  inhibition of growth at 6.25 µg/mL: 0%
Fusarium culmorum; I(a) 12.5 ppm
  inhibition of growth at 12.5 µg/mL: 0%
Fusarium culmorum; I(a) 25 ppm
  inhibition of growth at 25 µg/mL: 0%
Fusarium culmorum; I(a) 50 ppm
  inhibition of growth at 50 µg/mL: 0%
Fusarium culmorum; I(a) 100 ppm
  inhibition of growth at 100 µg/mL: 0%
Phaeosphaeria nodorum; 0.82 ppm
  % reduction of fungal growth: 0%
Phaeosphaeria nodorum; 2.5 ppm
  % reduction of fungal growth: 0%
Phaeosphaeria nodorum; 7.4 ppm
  % reduction of fungal growth: 0%
Phaeosphaeria nodorum; 22 ppm
  % reduction of fungal growth: 0%
Phaeosphaeria nodorum; 67 ppm
  % reduction of fungal growth: 0%
Phaeosphaeria nodorum; 200 ppm
  % reduction of fungal growth: 50%
Several fungal species
  reduction of fungal growth: up to 95%
Microdochium nivale; I(a) 1.56 ppm
  inhibition of growth at 1.56 µg/mL: 0%
Microdochium nivale; I(a) 3.125 ppm
  inhibition of growth at 3.125 µg/mL: 0%
Microdochium nivale; I(a) 6.25 ppm
  inhibition of growth at 6.25 µg/mL: 0%
Microdochium nivale; I(a) 12.5 ppm
  inhibition of growth at 12.5 µg/mL: 0%
Microdochium nivale; I(a) 25 ppm
  inhibition of growth at 25 µg/mL: 0%
Microdochium nivale; I(a) 50 ppm
  inhibition of growth at 50 µg/mL: 0%
Microdochium nivale; I(a) 100 ppm
  inhibition of growth at 100 µg/mL: 0%
